Reference: patent US20170114025A1, “METHODS FOR INHIBITING NECROPTOSIS” (Catalyst Therapeutics Pty Ltd, priority 2014, published 2017)
Read-outs that look alike come from different tables or passages of the source.

Columns and labels:
[1] = system: wild type MDFs (mouse dermal fibroblasts); test: Cell death assay, TSQ-induced necroptosis in MDFs (PI, flow cytometry); format: cell-based; conditions: wild type MDFs; at same or less than 1 μM
Text: (§1) Mouse dermal fibroblasts (MDFs) were isolated from three MlkI^−/− mice and three congenic wild type mice and then immortalized by SV40 large T antigen to generate three biologically independent cell lines, as described in Murphy J M, et al. (2013), Immunity 39(3):443-453. Immortalized MDFs were similarly prepared from three Ripk3^−/− mice and congenic wild type mice. MDFs and HEK293T were maintained in Dulbecco's modified Eagle's medium (DMEM) supplemented with 8-10% v/v fetal calf serum (FCS), and 5 μg/mL puromycin for lines stably transduced with inducible expression constructs for MLKL. U937 cells were cultured in RPMI1640 supplemented with 8% v/v FCS. Cell death assays were carried out in 24 well plates, seeding 1×10^5 cells per well. Cells attached over 4 h in the presence of 10 ng/mL doxycycline or 20 ng/mL were then treated with assorted combinations of Necrostatin (50 μM) and Q-VD-OPh (5 μM) 30 min prior to addition of TNF (100 ng/mL) and Smac mimetic (500 nM). After 24 h for MDF cells or 48 h for U937 cells, cells were harvested and PI positive cells (1 μg/mL) quantified using a BD FACSCalibur flow cytometer.

[2] = system: wild type U937 cells; test: Cell death assay, TSQ-induced necroptosis in U937 cells (PI, flow cytometry); format: cell-based, human; conditions: for IC50: Homo sapiens
Text: as §1

[3] = system: U937 human histiocytic leukemia cell line; test: Screening for inhibition of TSQ induced necroptosis, 96 well plate format; format: cell-based
Description: Screening Compounds for Inhibition of TSQ Induced Necroptosis, 96 Well Plate Format.
U937 human histiocytic leukemia cell line.
35,000 per well in 120 μL of media, counted and plated immediately prior to addition of inhibitor and death stimuli. Final well volume of 150 μL after addition of compounds and death stimuli
HTRPMI (WEHI Media kitchen, contains L-Glutamine and penicillin, streptomycin)—supplemented with 7.4% v/v FCS (Gibco, Precision Plus. Lot #1221437)
48 hours following addition of compounds and death stimuli
DMSO Final Concentration (% v/v): 0.2%
Compounds that are in the Death Stimulation Cocktail and their Final Concentrations: • hTNF-Fc (100 ng/ml)—produced by Silke lab, WEHI • Compound A (500 nM)—Smac mimetic, Tetralogic • Q-VD-OPh (10 μM)—MP Biomedicals
Analysis: • Cells treated with PI staining (1 μg/ml) and analysed by flow cytometry
TNF; S: Smac mimetic; Q: Q-VD-OPh): TSQ treatment ensures that cells specifically undergo necroptotic cell death. TNF activates the TNF receptor, Smac mimetic direct the signal away from proinflammatory signaling and toward the RIP1/RIP3-mediated cell death pathways, and Q-VD-OPh ensures that the apoptotic response is blocked leaving only the programmed necrosis response. The compounds' activity (solution in DMSO) tested in this TSQ-induced assay is evaluated by measuring their ability to block cell death as measured by flow cytometry after PI staining.

[4] = molecular target: T1, human MLKL ATP-binding site (Homo sapiens, UniProt Q8NB16); test: Complex between compound and human MLKL (FIG. 5); conditions: FIG. 5 (A) and (B)
T1 sequence (Q8NB16 1-471): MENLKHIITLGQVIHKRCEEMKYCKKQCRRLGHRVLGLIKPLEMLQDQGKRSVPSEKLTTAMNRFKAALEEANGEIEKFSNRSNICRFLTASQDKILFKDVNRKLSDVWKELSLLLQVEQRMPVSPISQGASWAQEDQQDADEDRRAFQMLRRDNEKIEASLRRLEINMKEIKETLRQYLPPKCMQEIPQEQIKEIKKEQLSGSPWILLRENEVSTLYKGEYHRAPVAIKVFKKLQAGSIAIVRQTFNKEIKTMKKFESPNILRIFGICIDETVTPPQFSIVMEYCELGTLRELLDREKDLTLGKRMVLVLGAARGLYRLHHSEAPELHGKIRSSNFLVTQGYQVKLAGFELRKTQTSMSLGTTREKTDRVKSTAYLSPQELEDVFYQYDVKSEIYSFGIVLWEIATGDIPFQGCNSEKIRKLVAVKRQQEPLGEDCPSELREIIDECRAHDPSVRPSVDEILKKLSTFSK

[5] = system: U937 cells; test: Counter screen: cell viability without TSQ cocktail (off target effect); format: cell-based; conditions: U937 without TSQ cocktail; for Off target effect (% cell death) at 500 nM: compound at 500 nM; for Off target effect (% cell death) at 1 uM: compound at 1 uM; for Off target effect (% cell death) at 5 uM: compound at 5 uM; for Off target effect (% cell death) at 10 uM: compound at 10 uM
Description: In parallel, all compounds are tested for their ability to affect cell viability. The same U937 cells are treated with compound in DMSO without the TSQ cocktail. This counter screen enables evaluation of off-target effects. In this case gain, cell viability is measured by flow cytometry after PI staining.

[6] = molecular target: T2, human MLKL(190-471) pseudokinase domain (Homo sapiens, UniProt Q8NB16); test: Surface Plasmon Resonance (SPR) binding, human MLKL; parameters: made in house; host or cells: Sf21 insect cells; conditions: read-out: Affinity (Kd) as determined by SPR
T2 sequence (Q8NB16 190-471): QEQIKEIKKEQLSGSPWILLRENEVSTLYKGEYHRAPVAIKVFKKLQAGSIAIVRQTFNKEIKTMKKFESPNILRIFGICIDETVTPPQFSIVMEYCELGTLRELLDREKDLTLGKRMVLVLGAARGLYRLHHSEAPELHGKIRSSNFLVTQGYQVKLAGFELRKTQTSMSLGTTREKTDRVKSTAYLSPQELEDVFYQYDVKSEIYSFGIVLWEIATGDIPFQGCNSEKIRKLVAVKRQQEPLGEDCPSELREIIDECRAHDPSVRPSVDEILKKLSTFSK
Description: Double His-tagged MLKL and an unrelated negative control reference protein were immobilized on an NTA Capture chip charged with Ni^2+ according to manufacturer's instructions. In some instances, double His-tagged proteins were captured via Ni^2+/NTA chelation on a series S sensor chip containing carboxymethylated dextran surface pre-immobilized with nitrilotriacetic acid (NTA). The surface was then activated and enhanced with NHS/EDC mixture and His captured proteins covalently coupled to the surface as succinamide esters. Ethanolamine was injected later to block any unreacted esters. Unbound Ni^2+ and non-covalently bound proteins were eluted by EDTA injections.
Typical immobilization levels were 2000-3000 Response Units (RU). Flow cell 1 was left blank as a reference surface. Immobilization experiments were carried out at 25° C. in a running buffer containing 20 mM HEPES (pH 8.0), 200 mM NaCl and 0.005% (v/v) surfactant P20.
Binding experiments were carried out in Running Buffer+2% v/v DMSO. […] Data were reduced, solvent corrected, and double referenced by Biacore T200 Evaluation Software. Data were fit globally to a two state kinetic interaction model and the Kd determined from the (kd/ka) ratio. A 1:1 binding stoichiometry was inferred from the steady state binding curves and the maximum observed Response Unit (RU) levels.

[7] = U-937, U937, TSQ, 48 hours, average IC50, unit not given in Table 2 (titrations in nM), read-out: Cell based assay Average
[8] = U-937, U937, TSQ, 48 hours, unit not given in Table 2 (titrations given in nM), read-out: Cell based assay IC50
[9] = U-937, Table 1, U937 cells, TSQ-induced necroptosis, read-out: Inhibition of necroptosis (IC50)
[10] = U-937, 48 h, read-out: Cell based assay Average
[11] = U-937, 48 h, read-out: Cell based assay IC50

Row | Compound | inhibition of TSQ-induced necroptosis [1] | inhibition of TSQ-induced necroptosis ([2]; wild type U937 cells) | IC50 [3, 7] [nM] | IC50 [3, 8] [nM] | binding site in complex with human MLKL [4] | IC50 [2, 9] [nM] | Off target effect (% cell death) at 500 nM [5] [%] | Off target effect (% cell death) at 1 uM [5] [%] | Off target effect (% cell death) at 5 uM [5] [%] | Off target effect (% cell death) at 10 uM [5] [%] | Kd [6] [nM] | IC50 [3, 10] [nM] | IC50 [3, 11] [nM] | IC50 ([2]; U-937, read-out: Inhibition of necroptosis (IC50)) [nM]
1 | CNC(=O)c1cc(Oc2ccc(NC(=O)Nc3ccc(Cl)c(C(F)(F)F)c3)cc2)ccn1 [Sorafenib, reference compound] | did not inhibit | did not inhibit |  |  |  |  |  |  |  |  |  |  |  | 
2 | CN(c1ccc(NC(=O)Nc2cc(C(F)(F)F)ccc2F)cc1)c1ccnc(Nc2cccc(S(N)(=O)=O)c2)n1 [Compound 3] |  |  | 15.3 | 3.31 | binds within the ATP-binding site of human MLKL | 1 to 5 | 40 | 72 | 86 | 84 |  |  |  | 
3 | CN(c1ccc(NC(=O)Nc2ccccc2)cc1)c1ccnc(Nc2cccc(S(N)(=O)=O)c2)n1 [Compound 2] |  |  |  | 123 |  | 400 to 800 | 24 | 23 | 32 | 87 | 1300 |  |  | 
4 | CN(c1ccc(NC(=O)Nc2ccc(OC(F)(F)F)cc2)cc1)c1ccnc(Nc2cccc(CS(N)(=O)=O)c2)n1 [Compound 13, (3-((4-(Methyl(4-(3-(4-(trifluoromethoxy)phenyl)ureido)phenyl)amino)pyrimidin-2-yl)amino)phenyl)methanesulfonamide] |  |  | 149 | 167 |  |  | 24 | 20 | 14 | 84 |  |  |  | 
5 | NS(=O)(=O)c1cccc(Nc2nccc(N(c3ccc(NC(=O)Nc4ccc(OC(F)(F)F)cc4)cc3)C3CC3)n2)c1 [Compound 24, 3-((4-(Cyclopropyl(4-(3-(4-(trifluoromethoxy)phenyl)ureido)-phenyl)amino)-pyrimidin-2-yl)amino)benzenesulfonamide] |  |  |  |  |  |  | 20 | 21 | 66 | 80 |  | 176 | 144 | 
6 | CN(c1ccc(NC(=O)Nc2ccc(OC(F)(F)F)cc2)cc1)c1ccnc(Nc2ccc(S(N)(=O)=O)cc2)n1 [Compound 4, 4-(4-(Methyl(4-(3-(4-(trifluoromethoxy)phenyl)ureido)phenyl)amino)pyrimidin-2-ylamino)benzenesulfonamide] |  |  |  |  |  |  |  |  |  |  | 4700 | > 5000 | 1460 | > 1000
7 | CN(c1ccc(NC(=O)Cc2ccc(OC(F)(F)F)cc2)cc1)c1ccnc(Nc2cccc(S(N)(=O)=O)c2)n1 [Compound 16, N-(4-(methyl(2-((3-sulfamoylphenyl)amino)pyrimidin-4-yl)amino)phenyl)-2-(4-(trifluoro-methoxy)phenyl)acetamide] |  |  | 87.3 | 97.5 |  |  | <20 | <20 | <20 | 30 |  |  |  | 
8 | CN(c1ccc(NC(=O)Nc2ccc(OC(F)(F)F)cc2)cc1)c1ccnc(Nc2cccc(CS(C)(=O)=O)c2)n1 [Compound 27, 1-(4-(Methyl(2-((3-((methylsulfonyl)methyl)phenyl)amino)pyrimidin-4-yl)amino)phenyl)-3-(4-(trifluoromethoxy)phenyl)urea] |  |  | 114 | 191 |  |  | 24 | 20 | 33 | 84 |  |  |  | 
9 | Cc1ccc(F)c(NC(=O)Nc2ccc(N(C)c3ccnc(Nc4cccc(S(N)(=O)=O)c4)n3)cc2)c1 [Compound 6] |  |  | 19.9 | 19 |  |  | <20 | 40 | 86 | 89 |  |  |  | 
